What is called ILS is how much longer treated animals lived than controls.

Results on three compounds are retold here after ChEMBL document CHEMBL1122370 (J Med Chem, 1983).

Test [1] has as its system L1210. Put plainly: In vivo antitumor activity against L1210 leukemia in 10 mice measured as Increased life span at 120 mg/kg. It is filed as functional. Conditions: Mus musculus.
Test [2] deals with Mus musculus. Put plainly: Average weight of the mouse after treating with 240 mg/kg dose for 7 days. Format: functional.
Test [3] relates to L1210. Put plainly: In vivo antitumor activity against L1210 leukemia in 5 mice measured as median survival range at 280 mg/kg; Value ranges from(14-20). It is filed as functional, Mus musculus.
Test [4] relates to Mus musculus. Put plainly: Average weight of the mouse after treating with 240 mg/kg dose for 1 day. Format: functional.
In test [5] the test system is L1210. Put plainly: In vivo antitumor activity against L1210 leukemia in 17 mice measured as T/C values(days); T/C = 17/9. It is filed as functional, Mus musculus.
Test [6] relates to L1210. Put plainly: In vivo antitumor activity against L1210 leukemia in 5 mice measured as median survival range at 240 mg/kg; Value ranges from(13-18). Format: functional, Mus musculus.
Test [7] concerns L1210. Put plainly: In vivo antitumor activity against L1210 leukemia in 10 mice measured as Increased life span at 160 mg/kg. Format: functional. The following applies: Mus musculus.
Test [8] deals with Mus musculus. Put plainly: Average weight of the mouse after treating with 200 mg/kg dose for 1 day. It is filed as functional.
Test [9] has as its system L1210. Put plainly: In vivo antitumor activity against L1210 leukemia in 13 mice measured as T/C values(days); T/C = 13/9. It is filed as functional, Mus musculus.
Test [10] relates to L1210. Put plainly: In vivo antitumor activity against L1210 leukemia in 15 mice measured as T/C values(days); T/C = 15/9. Format: functional, Mus musculus.
The subject of test [11] is L1210. Put plainly: In vivo antitumor activity against L1210 leukemia in 10 mice measured as median survival range at 160 mg/kg; Value ranges from(10-16). Format: functional, Mus musculus.
Test [12] has as its system L1210. Put plainly: In vivo antitumor activity against L1210 leukemia in 10 mice measured as median survival range at 120 mg/kg; Value ranges from(9-15). It is filed as functional, Mus musculus.
In test [13] the test system is Mus musculus. Put plainly: Average weight of the mouse after treating with 280 mg/kg dose for 7 days. Format: functional.
Test [14] deals with Mus musculus. Put plainly: In vivo antitumor activity against L1210 leukemia in 5 mice measured as median survival range at 200 mg/kg; Value ranges from(13-18). Format: functional.
In test [15] the test system is L1210. Put plainly: In vivo antitumor activity against L1210 leukemia in 5 mice measured as Increased life span at 280 mg/kg. Conditions: Mus musculus. It is filed as functional.
In test [16] the test system is Mus musculus. Put plainly: Average weight of the mouse after treating with 200 mg/kg dose for 7 days. Format: functional.
The subject of test [17] is L1210. Put plainly: In vivo antitumor activity against L1210 leukemia in 5 mice measured as Increased life span at 240 mg/kg. The following applies: Mus musculus. Format: functional.
Test [18] has as its system Mus musculus. Put plainly: Average weight of the mouse after treating with 120 mg/kg dose for 1 day. It is filed as functional.
In test [19] the test system is Mus musculus. Put plainly: Average weight of the mouse after treating with 160 mg/kg dose for 7 days. It is filed as functional.
The subject of test [20] is Mus musculus. Put plainly: In vivo antitumor activity against L1210 leukemia in 5 mice measured as Increased life span at 200 mg/kg. It is filed as functional.
Test [21] deals with Mus musculus. Put plainly: In vivo antitumor activity against L1210 leukemia in 16 mice measured as T/C values(days); T/C = 16/9. Format: functional.
For test [22], the system named is Mus musculus. Put plainly: Average weight of the mouse after treating with 120 mg/kg dose for 7 days. It is filed as functional.
Test [23] relates to Mus musculus. Put plainly: Average weight of the mouse after treating with 160 mg/kg dose for 1 day. It is filed as functional.
Test [24] deals with Mus musculus. Put plainly: Average weight of the mouse after treating with 280 mg/kg dose for 1 day. It is filed as functional.
For test [25], the system named is L1210. Put plainly: In vivo antitumor activity against L1210 leukemia in 5 mice measured as Increased life span at 20 mg/kg. It is filed as functional. The following applies: Mus musculus.
In test [26] the test system is L1210. Put plainly: In vivo antitumor activity against L1210 leukemia in 5 mice measured as Increased life span at 40 mg/kg. It is filed as functional. Conditions: Mus musculus.
The subject of test [27] is Mus musculus. Put plainly: (§1) Average weight of the mouse after treating with 40 mg/kg dose for 7 days. Format: functional.
The subject of test [28] is L1210. Put plainly: In vivo antitumor activity against L1210 leukemia in 5 mice measured as median survival range at 40 mg/kg; value ranges from(11-21). It is filed as functional, Mus musculus.
Test [29] has as its system L1210. Put plainly: In vivo antitumor activity against L1210 leukemia in 17 mice measured as T/C values; T/C = 17/9. Format: functional, Mus musculus.
Test [30] relates to Mus musculus. Put plainly: Average weight of the mouse after treating with 20 mg/kg dose for 7 day. Format: functional.
Test [31] has as its system L1210. Put plainly: In vivo antitumor activity against L1210 leukemia in 13 mice measured as T/C values; T/C = 13/9. Format: functional, Mus musculus.
The test system of test [32] is Mus musculus. Put plainly: Average weight of the mouse after treating with 40 mg/kg dose for 1 day. Format: functional. The arrangement: unit not given here.
In test [33] the test system is Mus musculus. Put plainly: Average weight of the mouse after treating with 20 mg/kg dose for 1 day. It is filed as functional. The arrangement: unit not given here.
For test [34], the system named is L1210. Put plainly: In vivo antitumor activity against L1210 leukemia in 5 mice measured as median survival range at 20 mg/kg; Value ranges from(11-19). It is filed as functional, Mus musculus.
For test [35], the system named is L1210. Put plainly: In vivo antitumor activity against L1210 leukemia in 5 mice measured as Increased life span at 80 mg/kg. It is filed as functional. Conditions: Mus musculus.
Test [36] has as its system L1210. Put plainly: In vivo antitumor activity against L1210 leukemia in 14 mice measured as T/C values(days); T/C = 14/9. It is filed as functional, Mus musculus.
The test system of test [37] is L1210. Put plainly: In vivo antitumor activity against L1210 leukemia in 5 mice measured as median survival range at 40 mg/kg; Value ranges from(13-19). It is filed as functional, Mus musculus.
Test [38] relates to Mus musculus. Put plainly: Average weight of the mouse after treating with 80 mg/kg dose for 7 days. Format: functional. The arrangement: unit not given beside the values.
The test system of test [39] is Mus musculus. Put plainly: Average weight of the mouse after treating with 140 mg/kg dose for 1 day. It is filed as functional.
The test system of test [40] is Mus musculus. Put plainly: Average weight of the mouse after treating with 140 mg/kg dose for 7 days. Format: functional.
Test [41] deals with L1210. Put plainly: In vivo antitumor activity against L1210 leukemia in 5 mice measured as median survival range at 140 mg/kg; Value ranges from(8-27). It is filed as functional, Mus musculus.
For test [42], the system named is L1210. Put plainly: In vivo antitumor activity against L1210 leukemia in 5 mice measured as median survival range at 20 mg/kg; Value ranges from(11-14). It is filed as functional, Mus musculus.
Test [43] has as its system L1210. Put plainly: In vivo antitumor activity against L1210 leukemia in 5 mice measured as median survival range at 80 mg/kg; Value ranges from(13-26). Format: functional, Mus musculus.
Test [44] concerns L1210. Put plainly: In vivo antitumor activity against L1210 leukemia in 5 mice measured as Increased life span at 140 mg/kg. Conditions: Mus musculus. Format: functional.
The subject of test [45] is L1210. Put plainly: In vivo antitumor activity against L1210 leukemia in 23 mice measured as T/C values(days); T/C = 23/9. It is filed as functional, Mus musculus.
Test [46] deals with L1210. Put plainly: In vivo antitumor activity against L1210 leukemia in 22 mice measured as T/C values(days); T/C = 22/9. Format: functional, Mus musculus.
Test [47] relates to Mus musculus. The description is as §1. It is filed as functional. The arrangement: unit not given beside the values.
For test [48], the system named is Mus musculus. Put plainly: Average weight of the mouse after treating with 20 mg/kg dose for 7 days. Format: functional. The arrangement: unit not given beside the values.
Test [49] relates to Mus musculus. Put plainly: Average weight of the mouse after treating with 80 mg/kg dose for 1 day. Further details: unit not given here. It is filed as functional.
For test [50], the system named is L1210. Put plainly: In vivo antitumor activity against L1210 leukemia in 5 mice measured as T/C values(days); T/C = 21/9. It is filed as functional, Mus musculus.
The subject of test [51] is L1210. Put plainly: In vivo antitumor activity against L1210 leukemia in 10 mice measured as median survival range at 120 mg/kg; Value ranges from(13-36). It is filed as functional, Mus musculus.

The compound `CN(Cc1cnc2nc(N)nc(N)c2n1)c1c(Cl)cc(C(=O)NC(CCC(=O)O)C(=O)O)cc1Cl` (centres undefined) registered an ILS at 120 mg/kg in test [1] of 22%. The Weight change in test [2] was 2.1; in [13], 1.4; in test [16], 1.8; in [19] it was 2.9; in test [22], 2.4. Also, the Range is 20 in test [3]; 18 in test [6]; 16 in [11]; 15 in test [12]; 18 in test [14]. In addition, the Average weight in test [4] came out at 22.4; in test [8], 24.2; in [18], 22.4; in test [23] it was 22.5; in test [24] it was 21.4. In addition, the T/C in [5], in [9], in [10] and in test [21] was 9 in each case. Moreover, the ILS at 160 mg/kg in [7] is 44%. The same compound registered an increase in lifespan (ILS) at 280 mg/kg in test [15] of 89%. This compound yielded an ILS at 240 mg/kg in test [17] of 67%. Moreover, the ILS at 200 mg/kg in [20] amounted to 78%.
In the case of `Cc1cc(C)c(COC(=O)CCC(NC(=O)c2ccc(N(C)Cc3cnc4nc(N)nc(N)c4n3)cc2)C(=O)OCc2c(C)cc(C)cc2C)c(C)c1` (centres undefined), in test [25], the ILS at 20 mg/kg stood at 44%. In test [26], the ILS at 40 mg/kg came out at 88%. Moreover, the Weight change is on record as 0 in test [27] and 0.8 in [30]. For the same compound, the Range in [28] amounted to 21; in test [34], 19. For the same compound, the T/C in test [29] and in test [31] was 9 in each case. The values for the Average weight in test [32] and in test [33] were 22 and 20.4, respectively.
Take `CCCC(C)OC(=O)CCC(NC(=O)c1cc(Cl)c(N(C)Cc2cnc3nc(N)nc(N)c3n2)c(Cl)c1)C(=O)OC(C)CCC` (centres undefined): in test [25], the ILS at 20 mg/kg was 55%. In test [35], the ILS at 80 mg/kg was determined as 133%. In test [1], the ILS at 120 mg/kg worked out at 145%. Also, the T/C in [36] was found to be 9; in test [10] it was 9; in test [45], 9; in test [46], 22; in [50], 9. In addition, in test [26], the ILS at 40 mg/kg was found to be 66%. For the same compound, the Range in test [37] was 19; in test [41] it was 27; in test [42] it was 14; in [43], 26; in [51] it was 36. Further, the Weight change in test [38] is 1.5; in test [40] it was 3.2; in test [47], 0.1; in [48], 2.6; in [22], 1.4. The Average weight in test [39] was found to be 21.6; in test [32], 20.6; in test [33], 22.1; in test [18], 21.5; in test [49], 21.2. In test [44], this compound returned an ILS at 140 mg/kg of 155%.
